Reference: the NIST ThermoML archive (doi:10.1016/j.fluid.2016.05.004)
± gives the expanded uncertainty stated by the source.

Conditions: Liquid, Closed cell (Static) method

Compound | vapor or sublimation pressure (233.17 K) [kPa] | vapor or sublimation pressure (243.24 K) [kPa] | vapor or sublimation pressure (253.22 K) [kPa] | vapor or sublimation pressure (263.24 K) [kPa] | vapor or sublimation pressure (273.18 K) [kPa] | vapor or sublimation pressure (233.19 K) [kPa] | vapor or sublimation pressure (243.22 K) [kPa] | vapor or sublimation pressure (253.21 K) [kPa] | vapor or sublimation pressure (263.21 K) [kPa] | vapor or sublimation pressure (273.19 K) [kPa] | vapor or sublimation pressure (243.23 K) [kPa] | vapor or sublimation pressure (253.14 K) [kPa] | vapor or sublimation pressure (263.2 K) [kPa]
FC(F)(F)C1(F)OC1(F)F (stereo not given) [2,2,3-trifluoro-3-(trifluoromethyl)oxirane] | 58 ± 10 | 95 ± 10 | 145 ± 10 | 216 ± 10 | 310 ± 10 | – | – | – | – | – | – | – | –
O=C=O [carbon dioxide] | – | – | – | – | – | 1009 ± 12 | 1432 ± 12 | 1970 ± 13 | 2645 ± 15 | 3473 ± 16 | – | – | –
FC(F)=C(F)C(F)(F)F [hexafluoropropene] | 64 ± 10 | – | – | – | – | – | – | – | – | 334 ± 10 | 102 ± 10 | 157 ± 10 | 233 ± 10
